Test results reported in PubChem BioAssay (NCI).
Values joined by “and” are separate entries in the source; they are usually repeats but may differ in a detail not shown here. Identical values can stand only once.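 1) Cells in 96-well plates. 2) Compound, 48 h, 5 concentrations. 3) Linear interpolation between surrounding doses. 4) Unreached endpoint = highest concentration. GI50 = concentration required for 50% inhibition of growth. TGI is the concentration that stops growth completely.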

How the values were obtained:
Assay in all cases: DTP human tumour cell line panel, 48 h
[1] = system: OVCAR-5 ovarian
[2] = system: HCT-116 colon
[3] = system: SK-MEL-28 melanoma
[4] = system: SF-268 CNS
[5] = system: SNB-19 CNS
[6] = system: K-562 leukemia
[7] = system: KM12 colon
[8] = system: HS 578T breast
[9] = system: COLO 205 colon
[10] = system: SF-295 CNS

Structure (SMILES)	GI50 [1] [µM]	TGI [1]	GI50 [2] [µM]	TGI [2] [µM]	GI50 [3] [µM]	TGI [3]	GI50 [4] [µM]	TGI [4] [µM]	GI50 [5] [µM]	TGI [5]	GI50 [6] [µM]	TGI [6]	GI50 [7] [µM]	TGI [7]	GI50 [8] [µM]	TGI [8] [µM]	GI50 [9] [µM]	TGI [9]	GI50 [10] [µM]	TGI [10]
Nc1cc(N)c2nc(-c3ccccc3)c(NCc3ccc(F)cc3)nc2c1	2.62	7.61 µM	12.8	> 100	1.9	3.77 µM	2.81	7.54	6.68	20.1 µM	4.39	> 100 µM	2.82	7.38 µM	4.86	> 100	2.53	6.18 µM	3.5	13.6 µM
C/C=C/[C@@H]1OC(=O)C2=C[C@@H](O)[C@@H](/C=C/C)O[C@H]21	13.6	35 µM	1.3	3.94	6.38	12.6 µM	24.1	> 82.5	16.6	33.8 µM	1.84		16.9	38.9 µM	17.1	41.2	2.2	6.9 µM	18	44.8 µM
CC(C)c1ccc(Nc2nccc(-c3cnn4ncccc34)n2)cc1	0.44	> 12.3 µM	0.324	4.29	0.422	1.6 µM	0.692	4.42	0.842	> 25 µM	1.19	> 25 µM	0.201	1.83 µM	0.623	5.16	0.306	0.704 µM	0.523	12.2 µM
CSc1ccccc1C#Cc1ccccc1C#CCCCCO	13.6	32.2 µM	14	31.4	15.1	31.2 µM	13.7	28.4	17.8	33.5 µM	6.19	54.4 µM	3.39	16.9 µM	7.62	32.3	15.8	31.5 µM	1.54	6.3 µM
Cc1c(Cl)cccc1NC1=C(Cl)C(=O)N(Cc2ccccc2)C1=O	17.6	31.5 µM	10.4	22.1	15.1	30.7 µM	6.88	27	22.1	61.5 µM	4.25	16.9 µM	2.17	14 µM	10.9	24.8	22.1	57.2 µM	3.01	14.4 µM
OCC1OC(n2cnc3c(=S)nc[nH]c32)C(O)C1O (stereo not drawn)	3.79	> 2500 µM	2.78	> 2500	> 62.5	> 2500 µM	> 23.9	> 2500	> 65.2	> 1960 µM	1.04	> 2500 µM	7.46	> 2500 µM	12.8	> 2500	8.34	> 2450 µM	3.49	> 2500 µM
CC12CC(OC(=O)[C@]1(C)O)[C@@H]([C@]1(O)CC[C@H]3[C@@H]4C[C@H]5O[C@]56[C@@H](O)C=CC(=O)[C@]6(C)[C@H]4CC[C@@]31C)C2 (stereo partly drawn)		25.2 µM		13.2		30.2 µM		30.2		> 100 µM		13.8 µM		28.7 µM		35.7		10.7 µM		> 100 µM
CCNCCNc1cc(C2CCCCC2)c(C#N)c2nc3ccccc3n12	2.57	6.56 µM	1.37	2.72	1.7	3.36 µM	1.9	4.38	4.9	18.4 µM	1.35	4.39 µM	2.76	8.48 µM	2.4	5.42	1.58	3.41 µM	1.8	3.36 µM
CCOC(=O)c1nc(Nc2ccc(Cl)cc2)c2ccccc2n1	10.7	22.3 µM	25.1	> 50	7.5	17.6 µM	10.1	25.1	13.5	43.2 µM	46	> 50 µM	7.42	15.1 µM	11.3	27.2	9.8	20.6 µM	8.09	15.6 µM
O=C(N/N=C/c1cc([N+](=O)[O-])ccc1O)c1cccc2ccccc12	6.2	> 100 µM	2.56	> 100	3.11	80.8 µM	4.12	> 100	7.65	> 100 µM	3.26	> 100 µM	4.66	> 100 µM	12.8	> 100	3.41	16.3 µM	2.77	20.9 µM
Cc1ccc2c(c1)C(=O)c1c-2n(CCCBr)c(=O)c2cc([N+](=O)[O-])ccc12	> 100	> 100 µM	18.7	> 100	> 100	> 100 µM	46.9	> 100	47.9	> 100 µM	32.1	> 100 µM	> 100	> 100 µM	> 100	> 100	87.4	> 100 µM	73.8	> 100 µM
Nc1n[nH]c2ccc([C@@H]3Nc4ccc5[nH]ncc5c4[C@H]4C5C=CC(C5)[C@@H]34)cc12 (stereo partly drawn)	0.586	30.3 µM	0.351	3.33	1.59	31.9 µM	1.36	31.5	0.59	61.3 µM	0.0992	> 100 µM	0.39	11.4 µM	0.27	21.2	0.332	1.83 µM	0.172	4.38 µM
COC(=O)C(F)C(Br)C(=O)OC (stereo not drawn)		31.8 µM		6.09		34.3 µM		24.4		> 79.3 µM		3.72 µM		50.6 µM		68.6		3.46 µM		70.1 µM
O=C(OCCBr)c1ccc(Cl)c([N+](=O)[O-])c1	18	34.5 µM	14.3	30.4	2.51	5.42 µM	5.44	10.3	1.87	3.74 µM	3.15	13.2 µM	5	10.9 µM	3.13	> 26.4	16.8	31.5 µM	15.5	30.5 µM
Clc1nc(Cl)c(-c2ccccc2)c(Cl)n1		9.88 µM		3.6		19.3 µM		> 29.9		28.5 µM		> 35 µM		14.6 µM		> 100		3.6 µM		27.2 µM
COc1cc(C2C3=C(COC3=O)Nc3cc4c(cc32)CCC4)cc2c1OCO2 (stereo not drawn)	0.231	41.7 µM	0.0428	1.31	0.0691	24.4 µM	0.0558	6.58	0.0724	23.3 µM	0.0375	12.3 µM	0.0305	0.12 µM	0.0425	21.3	0.0407	0.139 µM	0.0308	10.8 µM
CC(=O)O[C@H]1CC[C@@]2(C)[C@@H](CC[C@@H]3[C@@H]2CC[C@]2(C)C=C(C=O)C[C@@H]32)C1	13.2	34.4 µM	1.66	3.42	3.98	13.5 µM	3.3	11.2	14.5	30.8 µM	3.74	16.5 µM	12.7	30 µM	4.41	50.1	19	39.2 µM	17.4	36 µM
CC1(C)CC[C@]2(C(=O)N3CCOCC3)CC[C@]3(C)C(=CC[C@@H]4[C@@]5(C)C/C(=C/c6ccncc6)C(=O)C(C)(C)[C@@H]5CC[C@]43C)[C@@H]2C1	2.27	9.45 µM	0.319	2	1.84	5.41 µM	6.33	> 100	6.93	27.7 µM	0.637	> 100 µM	2.7	> 100 µM	2.56	> 100			2.03	34.8 µM
CN(C)c1ccc(C(=C2C=CC(=[N+](C)C)C=C2)c2ccc(N(C)C)cc2)cc1	0.295	1.17 µM and 0.578 µM	0.0363	0.36	0.219	1.09 µM and 1.9 µM			0.222	1.48 µM and 1.71 µM		1.1 µM and 0.143 µM	0.0781	0.397 µM and 0.93 µM	0.0875	2.82	0.0974	0.447 µM and 0.751 µM		0.244 µM and 0.885 µM
